The source of these data is patent US8778303B2, “99mTc-labeled 19 amino acid containing peptide for use as phosphatidylethanolamine binding molecular probe and radiopharmaceutical” (The Medical College of Wisconsin, Inc., priority 2008, dated 2014).

Where no end group is shown, it is not given here.

Data set [1] in a line: Cysteine challenge stability test. The following applies: cysteine-to-Duramycin ratio of 100:1. The data set is classed as physicochemical. How it is done: HPLC method 2. Jupiter C18 column (90 Å pore size, 250×4.6 mm) was used with a buffered mobile phase system consisting of phosphate buffer (10 mM sodium phosphate, pH 6.7) and acetonitrile at a flow rate of 1.0 ml/min at room temperature. A baseline of 5 min at 90% buffer A (phosphate buffer, pH6.7) and 10% buffer B (acetonitrile) was followed by a linear gradient to 10% buffer A and 90% buffer B in 30 min. The level of radioactivity in the HPLC elute was monitored by gamma counting at an energy window of 140±15 keV.
HYNIC-Duramycin was labeled with ^99mTc using the tricine-phosphine co-ligand system. Specifically, 15 μg of HYNIC-Duramycin was mixed with 40 mg of tricine, 1 mg of TPPTS and 20 μg SnCl2 in 0.8 ml at pH 5.3. The labeling was initiated with the addition of about 1 mCi of ^99mTc. The incubation was allowed to proceed for 40 min at room temperature. The final radiopharmaceutical, ^99mTc-HYNIC-Duramycin, was analyzed and purified using HPLC method 2. After purification, acetonitrile was removed by evaporation under nitrogen, and ^99mTc-HYNIC-Duramycin was reconstituted in saline for usage. ^99mTc-HYNIC-Duramycin^1 was synthesized in the same fashion. For stability tests, cysteine challenge was carried out at a cysteine-to-^99mTc-Duramycin ratio of 100 to 1, in 0.01 mM phosphate buffer (pH 6.8) for 2 hr at room temperature. The sample was analyzed with radioHPLC (method 2).

For data set [2] the following is noted: liposomes; bind PtdE at equal-molar ratio; cited from earlier work.
For data set [3] the following is noted: literature (McNulty 2003); cited from earlier work.
For data set [4] the following is noted: humans, including patients with Cystic Fibrosis; cited from earlier work.
A further data set deals with rat serum albumin (rat, UniProt P02770 25-608). Briefly: radioHPLC analysis of the tracer in the presence of rat serum albumin.
Sequence of rat serum albumin (P02770 25-608 limits assumed): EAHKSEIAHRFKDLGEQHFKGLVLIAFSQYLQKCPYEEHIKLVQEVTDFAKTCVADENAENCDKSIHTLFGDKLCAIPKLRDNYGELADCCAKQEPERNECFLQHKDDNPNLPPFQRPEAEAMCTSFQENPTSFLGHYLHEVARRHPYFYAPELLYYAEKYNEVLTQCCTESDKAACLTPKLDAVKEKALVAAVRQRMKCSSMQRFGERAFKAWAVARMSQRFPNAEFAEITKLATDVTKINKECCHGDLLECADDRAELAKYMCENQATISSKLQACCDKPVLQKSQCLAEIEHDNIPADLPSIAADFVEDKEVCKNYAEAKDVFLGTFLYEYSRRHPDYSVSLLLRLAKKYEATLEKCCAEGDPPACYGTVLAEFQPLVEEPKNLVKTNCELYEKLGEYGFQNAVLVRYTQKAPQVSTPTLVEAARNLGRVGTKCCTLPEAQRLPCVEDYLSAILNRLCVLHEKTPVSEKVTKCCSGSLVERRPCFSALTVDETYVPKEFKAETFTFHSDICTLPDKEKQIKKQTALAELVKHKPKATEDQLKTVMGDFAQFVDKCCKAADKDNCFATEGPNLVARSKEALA

For the molecule “19-amino acid peptide produced by Streptoverticillium cinnamoneus, CKQSCSFGPFTFVCDGNTK (SEQ ID NO 1), binds PtdE [Duramycin]”, the “radioactivity associated with the peptide diminished/reduced in cysteine challenge” value in data set [1] was determined as 90%. Moreover, in data set [2], the dissociation constant entry is recorded as “nanomolar range”. The hepatic retention entry in data set [3] is listed as “retained for an extended duration (e.g., many days) in the liver without complete washout”. Further, in data set [4], the “toxicity and immunogenicity in clinical testing” value was “lack of significant toxicity and immunogenicity”.

For the molecule “homolog of Duramycin with Arg replacing Lys at position two, CRQSCSFGPFTFVCDGNTK (SEQ ID NO 2) (not fully specified (bridges); ends and bridges not checked; also: lanthionine bridges, places not given here; listed as Streptoverticillium cinnamoneus) [Cinnamycin]”, the dissociation constant result in data set [2] was “nanomolar range”.

B1: ^99mTc-HYNIC-Duramycin (peptide)
peptide: CKQSCSFGPFTFVCDGNTK
modifications: thioether bonds between positions 1-18, 4-14 and 5-11; amide bond between positions 6 and 19; one HYNIC (6-hydrazinopyridine-3-carboxylic acid) moiety on either Cys-1 or Lys-2, chelating 99mTc with tricine and TPPTS co-ligands
notes: Lantibiotic peptide, cross-linked; also called 99mTc-Duramycin; radiolabeled Duramycin
Consider B1, for which the binding result with rat serum albumin is “no binding”.
